Data reported in publication PMC7894522, “Structure Based Design of Bicyclic Peptide Inhibitors of RbAp48” (Angewandte Chemie (International Ed. in English), 2020).
Read-outs that look alike come from different tables or passages of the source. Starred links: 1 amine or outer side, 2 acyl side, 3 side chain; linkers in the order of their positions; H or OH if unused. Positions of bridges follow the written chain, without caps; N, C: chain ends. Residues, ends and D or L forms follow the SMILES beside them. Pyridine(2,6-diCH2) = c1cc(C[*:1])nc(C[*:2])c1; TBMB = c1c(C[*:1])cc(C[*:3])cc1C[*:2]; mXylylene = c1cc(C[*:1])cc(C[*:2])c1; oXylylene = c1ccc(C[*:2])c(C[*:1])c1; pXylylene = c1cc(C[*:2])ccc1C[*:1]; X5 = Brc1cc(C[*:1])cc(C[*:2])c1

Target: RbAp48 (Homo sapiens, UniProt Q09028)
Test: Competitive fluorescence polarization (FP) assay using complex of peptide 1 and RbAp48
Type: binding
Design: Full length RbAp48 was cloned; His tag followed by 3C cleavage site (N, cleaved yes); made in house; host or cells: Sf9 insect cells
Settings: for IC50: competitive FP, RbAp48 15 nM, read-out: IC50
Method: The binding affinity of our library of synthetic cyclic peptides was evaluated by a competitive fluorescence polarization (FP) assay using a complex formed by peptide 1 and RbAp48. To reduce the length of the peptide it was truncated to the amino acids which seemed most critical according to the crystal structure (residues 676–689, pdb:4pbz). […] We chose to use a cyclization approach to regain affinity, that is, not to induce more interactions but through minimizing the entropic penalty upon binding by reducing the flexibility of the peptide. To this end two amino acids were chosen which are facing one another in the structure (see Figure 1 B/D/E). Two peptides were designed where glutamic acid was used in position 676 (4) or position 680 (5) and lysine in position 688 for both peptides (see Table 1). The macrocycles were formed by connecting the side chains via an amide bond (see Figure 1 D/E). Peptide synthesis was performed on Rink‐amide resin using the Fmoc‐strategy incorporating Fmoc‐L‐Glu(All)‐OH and Fmoc‐L‐Lys(Alloc)‐OH at the sites for cyclization. After completion of the linear synthesis the allyl protecting groups were removed using Pd^0 catalysis and the amide link was formed by using PyBOP. […] Therefore, a range of peptides was synthesized which were cyclized using the same amino acid positions but via a cysteine alkylation strategy (see Figure 1 D/E and Table 1). In this method the residues used for cyclization are replaced with cysteine and benzylic dibromides act as crosslinkers on the unprotected peptides. ^[11] Previous research has shown that such linkers can effectively stabilize cyclic peptides and yield high affinity ligands for protein–protein interaction inhibition. ^[12] Such a linker introduces a xylene group in close vicinity of the hydrophobic patch potentially reconstituting the lost key hydrophobic interactions. To explore a variety of macrocycle conformations we used either ortho‐, meta‐ or para‐substituted dibromides to exchange the linker in both 4 and 5 (see Figure 1 D/E and Table 1). ^[13]
Protein expression and purification
RbAp48 was expressed and purified by the Dortmund Protein Facility. Full length RbAp48 was cloned into a pOPIN vector ligating it to an N-terminal His tag followed by a 3C cleavage site. The protein was expressed from Sf9 cells for 48 h. Cells were harvested and lysed and the protein was purified by loading onto a HisTrap FF crude 5 ml column followed by on-column cleavage using Precission protease. The cleaved protein was then further purified using a HiLoad 26/60 Superdex 200 column.
Fluorescence polarization assay
Fluorescence polarization assays were performed in 384 wells plates in 80 µl volumes. The assay buffer contains 20 mM Tris-HCl, 150 mM NaCl, 0.01% Tween-20 at pH 7.5. The concentration of the fluorescently labelled peptides was 1 nM plates were incubated at room temperature for 30 min before they were read on a Tecan Spark plate reader (λex = 485 nm, λem = 535 nm).
For competitive assays the same conditions were used with a tracer concentration of 1 nM was used and a protein concentration of 15 nM .

[1] = Table 1, tracer peptide 1 1 nM, 20 mM Tris-HCl, 150 mM NaCl, 0.01% Tween-20, pH 7.5, 30 min room temperature, lower limit set by 15 nM protein
[2] = Supplemental Table 2, tracer 1 nM, pH 7.5, 30 min room temperature

Chain of RbAp48 (Q09028 whole entry): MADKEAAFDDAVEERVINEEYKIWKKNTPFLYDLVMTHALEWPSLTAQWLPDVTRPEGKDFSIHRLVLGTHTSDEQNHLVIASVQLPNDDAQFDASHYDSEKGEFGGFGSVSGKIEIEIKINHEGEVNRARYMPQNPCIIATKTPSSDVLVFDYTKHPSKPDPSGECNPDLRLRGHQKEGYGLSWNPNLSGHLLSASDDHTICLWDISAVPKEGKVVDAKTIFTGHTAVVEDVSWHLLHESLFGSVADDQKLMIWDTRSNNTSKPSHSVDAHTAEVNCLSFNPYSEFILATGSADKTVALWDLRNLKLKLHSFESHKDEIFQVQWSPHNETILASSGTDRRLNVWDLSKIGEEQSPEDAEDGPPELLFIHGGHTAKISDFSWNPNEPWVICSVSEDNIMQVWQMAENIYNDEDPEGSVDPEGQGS

| SMILES | IC50 [1] | IC50 [2] | FP activity in words (competitive FP assay) |
| --- | --- | --- | --- |
| CC(=O)N[C@@H](CCC(=O)O)C(=O)N[C@H](C(=O)N[C@@H](CCCCN)C(=O)N[C@@H](CCCNC(=N)N)C(=O)N[C@H]1CSCc2ccccc2CSC[C@@H](C(=O)N[C@@H](C)C(N)=O)NC(=O)[C@@H]2CCCN2C(=O)[C@H](CCCCN)NC(=O)[C@H](Cc2ccc(O)cc2)NC(=O)[C@@H]2CCCN2C(=O)[C@H](CCCNC(=N)N)NC(=O)[C@H](CCCNC(=N)N)NC(=O)[C@H](C)NC1=O)[C@@H](C)O [Peptide 10] (Ac-ETKRCARRPYKPCA-NH2; linker 5-13 via oXylylene) | 322 ± 56.8 nM | – | – |
| CC(=O)N[C@H]1CCC(=O)NCCCC[C@@H](C(=O)N[C@@H](C)C(N)=O)NC(=O)[C@@H]2CCCN2C(=O)[C@H](CCCCN)NC(=O)[C@H](Cc2ccc(O)cc2)NC(=O)[C@@H]2CCCN2C(=O)[C@H](CCCNC(=N)N)NC(=O)[C@H](CCCNC(=N)N)NC(=O)[C@H](C)NC(=O)[C@H](C)NC(=O)[C@H](CCCNC(=N)N)NC(=O)[C@H](CCCCN)NC(=O)[C@H]([C@@H](C)O)NC1=O [Peptide 4] (Ac-ETKRAARRPYKPKA-NH2; lactam 1-13) | 47.7 ± 12.5 nM | – | – |
| CC(=O)N[C@H]1CSCc2cc3cc(c2)CSC[C@@H](C(=O)N[C@@H](CC(N)=O)C(N)=O)NC(=O)[C@@H]2CCCN2C(=O)[C@H](CC(C)C)NC(=O)[C@H](Cc2ccc(O)cc2)NC(=O)[C@@H]2CCCN2C(=O)[C@H](Cc2c[nH]cn2)NC(=O)[C@H](CCCNC(=N)N)NC(=O)[C@H](C)NC(=O)[C@H](CSC3)NC(=O)[C@H](Cc2c[nH]cn2)NC(=O)[C@H](Cc2c[nH]c3ccccc23)NC(=O)[C@@H]2CCCN2C1=O [Peptide 35] (Ac-CPWHCARHPYLPCN-NH2; linker 1-5-13 via TBMB) | – | 7480 ± 3020 nM | – |
| CC(=O)N[C@H]1CSCc2cccc(c2)CSC[C@@H](C(=O)N[C@@H](C)C(N)=O)NC(=O)[C@@H]2CCCN2C(=O)[C@H](CCCCN)NC(=O)[C@H](Cc2ccc(O)cc2)NC(=O)[C@@H]2CCCN2C(=O)[C@H](Cc2c[nH]cn2)NC(=O)[C@H](CCCNC(=N)N)NC(=O)[C@H](C)NC(=O)[C@H](C)NC(=O)[C@H](CCCNC(=N)N)NC(=O)[C@H](CCCCN)NC(=O)[C@H]([C@@H](C)O)NC1=O [Peptide 26] (Ac-CTKRAARHPYKPCA-NH2; linker 1-13 via mXylylene) | – | 512 ± 48.4 nM | – |
| CC(=O)N[C@H]1CSCc2cc(Br)cc(c2)CSC[C@@H](C(=O)N[C@@H](C)C(N)=O)NC(=O)[C@@H]2CCCN2C(=O)[C@H](CCCCN)NC(=O)[C@H](Cc2ccc(O)cc2)NC(=O)[C@@H]2CCCN2C(=O)[C@H](CCCNC(=N)N)NC(=O)[C@H](CCCNC(=N)N)NC(=O)[C@H](C)NC(=O)[C@H](C)NC(=O)[C@H](CCCNC(=N)N)NC(=O)[C@H](CCCCN)NC(=O)[C@H]([C@@H](C)O)NC1=O [Peptide 30] (Ac-CTKRAARRPYKPCA-NH2; linker 1-13 via X5 (inferred)) | – | 31 ± 3.7 nM | – |
| CC(=O)N[C@H]1CSCc2cc3cc(c2)CSC[C@@H](C(=O)N[C@@H](C)C(N)=O)NC(=O)[C@@H]2CCCN2C(=O)[C@H](CCCCN)NC(=O)[C@H](C)NC(=O)[C@@H]2CCCN2C(=O)[C@H](CCCNC(=N)N)NC(=O)[C@H](CCCNC(=N)N)NC(=O)[C@H](C)NC(=O)[C@H](CSC3)NC(=O)[C@H](CCCNC(=N)N)NC(=O)[C@H](CCCCN)NC(=O)[C@H]([C@@H](C)O)NC1=O [Peptide 43] (Ac-CTKRCARRPAKPCA-NH2; linker 1-5-13 via TBMB) | 38.3 ± 1.9 nM | – | – |
| CC(=O)N[C@H]1CSCc2ccc(cc2)CSC[C@@H](C(=O)N[C@@H](C)C(N)=O)NC(=O)[C@@H]2CCCN2C(=O)[C@H](CCCCN)NC(=O)[C@H](Cc2ccc(O)cc2)NC(=O)[C@@H]2CCCN2C(=O)[C@H](CCCNC(=N)N)NC(=O)[C@H](CCCNC(=N)N)NC(=O)[C@H](C)NC(=O)[C@H](C)NC(=O)[C@H](CCCNC(=N)N)NC(=O)[C@H](CCCCN)NC(=O)[C@@H]2CCCN2C1=O [Peptide 21] (Ac-CPKRAARRPYKPCA-NH2; linker 1-13 via pXylylene) | – | 25 ± 7.3 nM | IC50 values similar to those of 7 and 8 |
| CC(=O)N[C@H]1CSCc2cccc(n2)CSC[C@@H](C(=O)N[C@@H](C)C(N)=O)NC(=O)[C@@H]2CCCN2C(=O)[C@H](CCCCN)NC(=O)[C@H](Cc2ccc(O)cc2)NC(=O)[C@@H]2CCCN2C(=O)[C@H](CCCNC(=N)N)NC(=O)[C@H](CCCNC(=N)N)NC(=O)[C@H](C)NC(=O)[C@H](C)NC(=O)[C@H](CCCNC(=N)N)NC(=O)[C@H](CCCCN)NC(=O)[C@H]([C@@H](C)O)NC1=O [Peptide 9] (Ac-CTKRAARRPYKPCA-NH2; linker 1-13 via Pyridine(2,6-diCH2)) | 34.9 ± 14 nM | – | – |
| CC(=O)N[C@H]1CSCc2ccccc2CSC[C@@H](C(=O)N[C@@H](C)C(N)=O)NC(=O)[C@@H]2CCCN2C(=O)[C@H](CCCCN)NC(=O)[C@H](Cc2ccc(O)cc2)NC(=O)[C@@H]2CCCN2C(=O)[C@H](CCCNC(=N)N)NC(=O)[C@H](CCCNC(=N)N)NC(=O)[C@H](C)NC(=O)[C@H](C)NC(=O)[C@H](CCCNC(=N)N)NC(=O)[C@H](CCCCN)NC(=O)[C@H]([C@@H](C)O)NC1=O [Peptide 6] (Ac-CTKRAARRPYKPCA-NH2; linker 1-13 via oXylylene) | 77.4 ± 6.5 nM | – | – |
| CC(=O)N[C@H]1CSCc2cc3cc(c2)CSC[C@@H](C(=O)N[C@@H](C)C(N)=O)NC(=O)[C@@H]2CCCN2C(=O)[C@H](CCCCN)NC(=O)[C@H](Cc2ccc(O)cc2)NC(=O)[C@@H]2CCCN2C(=O)[C@H](CCCNC(=N)N)NC(=O)[C@H](CCCNC(=N)N)NC(=O)[C@H](C)NC(=O)[C@H](CSC3)NC(=O)[C@H](CCCNC(=N)N)NC(=O)[C@H](C)NC(=O)[C@H]([C@@H](C)O)NC1=O [Peptide 38] (Ac-CTARCARRPYKPCA-NH2; linker 1-5-13 via TBMB) | 263 ± 42.7 nM | – | – |
| CC(=O)N[C@H]1CSCc2cccc(c2)CSC[C@@H](C(=O)N[C@@H](CC(N)=O)C(N)=O)NC(=O)[C@@H]2CCCN2C(=O)[C@H](CC(C)C)NC(=O)[C@H](Cc2ccc(O)cc2)NC(=O)[C@@H]2CCCN2C(=O)[C@H](Cc2c[nH]cn2)NC(=O)[C@H](CCCNC(=N)N)NC(=O)[C@H](C)NC(=O)[C@H](C)NC(=O)[C@H](Cc2c[nH]cn2)NC(=O)[C@H](Cc2c[nH]c3ccccc23)NC(=O)[C@@H]2CCCN2C1=O [Peptide 18] (Ac-CPWHAARHPYLPCN-NH2; linker 1-13 via mXylylene) | – | > 10000 nM | – |
| CC(=O)N[C@H]1CSCc2cc(C)cc(c2)CSC[C@@H](C(=O)N[C@@H](C)C(N)=O)NC(=O)[C@@H]2CCCN2C(=O)[C@H](CCCCN)NC(=O)[C@H](Cc2ccc(O)cc2)NC(=O)[C@@H]2CCCN2C(=O)[C@H](CCCNC(=N)N)NC(=O)[C@H](CCCNC(=N)N)NC(=O)[C@H](C)NC(=O)[C@H](C)NC(=O)[C@H](CCCNC(=N)N)NC(=O)[C@H](CCCCN)NC(=O)[C@H]([C@@H](C)O)NC1=O [Peptide 31] (Ac-CTKRAARRPYKPCA-NH2; linker 1-13 via TBMB (inferred)) | – | 40.4 ± 1.5 nM | – |
| CC(=O)N[C@H]1CSCc2cc3cc(c2)CSC[C@@H](C(=O)N[C@@H](C)C(N)=O)NC(=O)[C@@H]2CCCN2C(=O)[C@H](C)NC(=O)[C@H](Cc2ccc(O)cc2)NC(=O)[C@@H]2CCCN2C(=O)[C@H](CCCNC(=N)N)NC(=O)[C@H](CCCNC(=N)N)NC(=O)[C@H](C)NC(=O)[C@H](CSC3)NC(=O)[C@H](CCCNC(=N)N)NC(=O)[C@H](CCCCN)NC(=O)[C@H]([C@@H](C)O)NC1=O [Peptide 44] (Ac-CTKRCARRPYAPCA-NH2; linker 1-5-13 via TBMB) | 19.8 ± 3.6 nM | – | – |
| CC(=O)N[C@@H](CCC(=O)O)C(=O)N[C@H](C(=O)N[C@@H](CCCCN)C(=O)N[C@@H](CCCNC(=N)N)C(=O)N[C@H]1CSCc2cccc(n2)CSC[C@@H](C(=O)N[C@@H](C)C(N)=O)NC(=O)[C@@H]2CCCN2C(=O)[C@H](CCCCN)NC(=O)[C@H](Cc2ccc(O)cc2)NC(=O)[C@@H]2CCCN2C(=O)[C@H](CCCNC(=N)N)NC(=O)[C@H](CCCNC(=N)N)NC(=O)[C@H](C)NC1=O)[C@@H](C)O [Peptide 13] (Ac-ETKRCARRPYKPCA-NH2; linker 5-13 via Pyridine(2,6-diCH2)) | 147 ± 10.7 nM | – | – |
